Experimental data reported in patent US12357619B2, “Noradrenergic and specific serotonergic anxiolytic and antidepressant, method for the production and use thereof” (ALLA CHEM, LLC, priority 2020, dated 2025).
Where two headings read alike, the source gives them in different places.

Assays:
Adrenergic α1A = molecular target: T1, Adrenergic α1A (Homo sapiens, UniProt P35348); experiment: Receptor activities, Ki (Table 1); format: binding
T1 sequence (P35348 1-466): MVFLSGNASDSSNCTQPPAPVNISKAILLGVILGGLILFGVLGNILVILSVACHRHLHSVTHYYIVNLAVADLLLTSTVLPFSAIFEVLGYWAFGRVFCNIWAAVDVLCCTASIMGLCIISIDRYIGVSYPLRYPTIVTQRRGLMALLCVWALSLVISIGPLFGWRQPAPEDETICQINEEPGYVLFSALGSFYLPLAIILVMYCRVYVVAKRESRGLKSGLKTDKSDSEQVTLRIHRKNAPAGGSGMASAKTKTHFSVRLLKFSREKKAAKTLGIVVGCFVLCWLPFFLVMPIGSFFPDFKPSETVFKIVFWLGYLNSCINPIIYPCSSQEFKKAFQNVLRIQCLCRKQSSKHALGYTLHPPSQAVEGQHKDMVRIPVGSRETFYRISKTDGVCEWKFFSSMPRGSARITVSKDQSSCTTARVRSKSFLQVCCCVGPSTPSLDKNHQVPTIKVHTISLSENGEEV

Serotonin 5-HT1A = molecular target: T2, Serotonin 5-HT1A (Homo sapiens, UniProt P08908); experiment: Receptor activities, Ki (Table 1); format: binding
T2 sequence (P08908 1-422): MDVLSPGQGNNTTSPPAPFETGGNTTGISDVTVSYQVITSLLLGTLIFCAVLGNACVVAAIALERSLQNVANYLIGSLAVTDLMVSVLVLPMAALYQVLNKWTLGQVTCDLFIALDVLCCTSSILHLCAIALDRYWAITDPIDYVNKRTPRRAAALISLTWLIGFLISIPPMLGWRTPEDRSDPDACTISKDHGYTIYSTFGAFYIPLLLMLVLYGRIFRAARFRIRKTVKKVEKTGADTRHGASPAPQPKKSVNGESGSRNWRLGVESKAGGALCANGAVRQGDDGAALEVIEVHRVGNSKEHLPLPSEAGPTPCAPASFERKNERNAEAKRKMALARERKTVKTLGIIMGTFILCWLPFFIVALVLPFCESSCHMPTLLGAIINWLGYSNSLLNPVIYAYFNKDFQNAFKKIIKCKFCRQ

Serotonin 5-HT2C = molecular target: T3, Serotonin 5-HT2C (Homo sapiens, UniProt P28335); experiment: Receptor activities, Ki (Table 1); format: binding
T3 sequence (P28335 33-458): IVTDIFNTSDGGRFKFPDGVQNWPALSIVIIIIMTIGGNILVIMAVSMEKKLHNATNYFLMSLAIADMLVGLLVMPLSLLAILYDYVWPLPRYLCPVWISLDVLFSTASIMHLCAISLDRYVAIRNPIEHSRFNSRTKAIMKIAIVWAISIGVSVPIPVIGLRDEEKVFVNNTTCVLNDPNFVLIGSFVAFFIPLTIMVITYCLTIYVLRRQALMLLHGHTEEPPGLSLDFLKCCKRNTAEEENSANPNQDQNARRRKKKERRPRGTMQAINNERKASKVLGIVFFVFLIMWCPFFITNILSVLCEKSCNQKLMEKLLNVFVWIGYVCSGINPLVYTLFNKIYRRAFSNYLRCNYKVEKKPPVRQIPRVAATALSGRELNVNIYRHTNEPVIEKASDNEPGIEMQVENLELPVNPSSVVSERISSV

[1] = test system: people with generalized anxiety disorder (GAD); experiment: Randomized double-blind placebo-controlled GAD study, Hamilton anxiety scale (HARS); format: in vivo, human; settings: for HARS average change (standard error): after 8 weeks; for Patients who attained a 50% HARS total score reduction at Week 8, percentage / Patients who attained a 50% HARS total score reduction at Week 8, X (number): MITT population
Experimental: Example 12. Efficacy and safety study of the oral drug of this invention made as a pharmaceutical composition of this invention in capsules. […] During the study, 3 scheduled visits were conducted in Week 2, Week 4, and Week 8 to assess the effectiveness and safety of the therapy as well as drug inventory and administration. During all of those visits, the patient's diary was checked, a drug inventory was made and the patients' compliance was assessed. In addition, adverse events, concomitant therapy, and vital signs were evaluated, urine drug screen was performed, and assessments using Hamilton Anxiety Rating Scale (HARS), Hamilton Depression Scale (HAMD), Clinical Global Impression-Severity (CGI-S), Clinical Global Impression-Improvement (CGI-I), and Visual Analog Scale (VAS) were made; women of child-bearing potential will take a urine pregnancy test. Also, during visits at Week 4 and Week 8 a physical examination was performed, body weight was measured, an ECG was performed in 12 leads and blood and urine samples were obtained for laboratory tests, namely: urinalysis and biochemical blood analysis, PK analysis before and 1 hour after taking the study drug (SD), and urinalysis. At Week 4, a blood sample was also obtained for genotyping by CYP2D6. At Week 8, treatment in the groups was completed, and all patients were prescribed a placebo to be taken during the follow-up period, which lasted 1 week. During this time, a possible development of SD withdrawal syndrome against the background of placebo was evaluated. During the visit at Week 9, the patient's diary was checked, a drug inventory was made and the patients' compliance was assessed. In addition, adverse events, concomitant therapy, and vital signs were evaluated, urine drug screen was performed, and assessments using the Hamilton Anxiety Rating Scale (HARS), Hamilton Depression Scale (HAMD), Clinical Global Impression-Severity (CGI-S), Clinical Global Impression-Improvement (CGI-I), and Visual Analog Scale (VAS) were made; women of child-bearing age will take a urine pregnancy test. At this point, the patients' participation in the study was completed, and they received recommendations for further treatment as part of standard GAD therapy.

[2] = test system: people with generalized anxiety disorder (GAD); experiment: Randomized double-blind placebo-controlled GAD study, clinical global impression-improvement (CGI-I); format: in vivo, human; settings: after 8 weeks
Experimental: Example 12. Efficacy and safety study of the oral drug of this invention made as a pharmaceutical composition of this invention in capsules. […] During the study, 3 scheduled visits were conducted in Week 2, Week 4, and Week 8 to assess the effectiveness and safety of the therapy as well as drug inventory and administration. During all of those visits, the patient's diary was checked, a drug inventory was made and the patients' compliance was assessed. In addition, adverse events, concomitant therapy, and vital signs were evaluated, urine drug screen was performed, and assessments using Hamilton Anxiety Rating Scale (HARS), Hamilton Depression Scale (HAMD), Clinical Global Impression-Severity (CGI-S), Clinical Global Impression-Improvement (CGI-I), and Visual Analog Scale (VAS) were made; women of child-bearing potential will take a urine pregnancy test. Also, during visits at Week 4 and Week 8 a physical examination was performed, body weight was measured, an ECG was performed in 12 leads and blood and urine samples were obtained for laboratory tests, namely: urinalysis and biochemical blood analysis, PK analysis before and 1 hour after taking the study drug (SD), and urinalysis. At Week 4, a blood sample was also obtained for genotyping by CYP2D6. […] During this time, a possible development of SD withdrawal syndrome against the background of placebo was evaluated. […]

[3] = Pharmacokinetics, single oral administration of capsules in healthy volunteers (Example 10); format: in vivo, human; settings: for AUC(0-inf) / Tmax / Cmax: capsules; for AUC(0-inf) / Tmax: 8 volunteers; for Cmax: average of 8 volunteers
Text: Clinical study of the safety of the oral drug of this invention.

[4] = male, human, blood, single oral dose 2 mg
[5] = male, human, blood, single oral dose 4 mg
[6] = male, human, blood, single oral dose 10 mg
[7] = male, human, blood, single oral dose 20 mg

## Cc1ccc2c(c1)c1c(n2CCc2ccccc2)CCN(C)C1.Cl [A•HCl, 2,8-dimethyl-5-(2-phenylethyl)-2,3,4,5-tetrahydro-1H-pyrido[4,3-b]indole hydrochloride]
Adrenergic α1A
  Ki: 30.2 nM
Serotonin 5-HT1A
  Ki: 61 nM
Serotonin 5-HT2C
  Ki: 1.17 nM
[1]; 40 mg, N = 42, average at Week 0 26.9
  HARS average change (standard error): −13.4 (1.37)
[1]; 60 mg, N = 44, average at Week 0 26.5
  HARS average change (standard error): −12.9 (1.37)
[1]; Dose 60 mg, N = 40
  Patients who attained a 50% HARS total score reduction at Week 8, percentage: (55.0%)
[1]; Dose 60 mg, N = 40, of Y = 40 patients
  Patients who attained a 50% HARS total score reduction at Week 8, X (number): 22
[1]; printed Dose 60 mg, N = 42
  Patients who attained a 50% HARS total score reduction at Week 8, percentage: (47.6%)
[1]; printed Dose 60 mg, N = 42, of Y = 42 patients
  Patients who attained a 50% HARS total score reduction at Week 8, X (number): 20
[2]; 40 mg, N = 42, average at Week 0 4.00
  CGI-I average change (standard error): −1.63 (0.14)
[2]; 60 mg, N = 44, average at Week 0 4.03
  CGI-I average change (standard error): −1.68 (0.14)
[3]; dose range from 2 to 20 mg
  Dose dependence of Cmax and AUC: linear increase in Cmax and AUC
[3]; [4]
  AUC(0-inf): 0.0946 ng·h/mL
  Tmax: 1 h
[3]; male, human, blood, single oral dose 2 mg, read-out: Cmax
  Cmax: 0.0021 ng/mL
[3]; [5]
  AUC(0-inf): 0.211 ng·h/mL
  Tmax: 1 h
[3]; [6]
  AUC(0-inf): 0.462 ng·h/mL
  Tmax: 0.625 h
[3]; [7]
  AUC(0-inf): 0.834 ng·h/mL
  Tmax: 1 h
[3]; male, human, blood, single oral doses 2 to 20 mg, read-out: Harmonic mean half-life
  half-life: ≤ 14 h
[3]; single oral dose 4 mg
  Cmax: 0.0229 ng/mL
[3]; single oral dose 10 mg
  Cmax: 0.0537 ng/mL
[3]; single oral dose 20 mg
  Cmax: 0.0841 ng/mL
[3]; single oral doses 2 to 20 mg
  Time at which the maximum concentration in the blood of the base (A) is reached: about an hour
